Like-named read-outs stand apart in the source and are kept apart here.
How the values were obtained:
[1] = system: platelet stickiness; test: retention test according to Morris (inhibition of platelet stickiness on glass beads); assay type: cell-based; conditions: human citrate-blood, 10 min at 37°C
Method: 1. The inhibiting effect upon the platelet stickiness was determined by means of the so-called retention test according to Morris [see E. Deutsch et al, 1. Internationales Symposium uber Stoffwechsel und Membranpermeabilitat von Erythrocyten und Thrombocyten, Vienna, Austria (1969); Georg Thieme Verlag, Stuttgart, Germany]. 1 ml of human citrate-blood is pipetted into each of a number of small test tubes, and the test compound is added to various final concentrations. The tubes are incubated for 10 minutes at 37°C. 1 gm of glass beads (glass beads for gas-chromatography) is added to half of the tubes. Finally, the closed tubes are attached to a vertical wheel and rotated for 1 minute. By this means good contact is obtained between the glass beads and the blood. The tubes are then allowed to stand at room temperature for another hour, after which time a satisfactory sedimentation of erythrocytes has taken place. 0.01 ml of the supernatant plasma is removed, diluted to 1:8,000 with celloscope solution, and the platelet count is read in the celloscope.

[2] = system: thrombocyte aggregation; test: inhibition of thrombocyte aggregation induced by collagen; assay type: cell-based, human; conditions: platelet-rich plasma
Text: (§1) 2. The inhibiting action upon thrombocyte aggregation was ascertained by the method of Born and Cross, J. Physiol. 170, 397 (1964), in the platelet-rich plasma of healthy human test subjects, by photometrically ascertaining and registering the rate of decrease of the optical density after addition of (a) adenosine diphosphate (ADP). The angle of inclination of the density curve is a measure of the rate of aggregration (V max.). The point on the curve which corresponded to the greatest light-permeability was used for calculation of the optical density (o.D.).
(b) Aggregration with collagen
The procedure is the same as described under (a). To provoke aggregation commercial collagen was used, containing 1 mgm of collagen fibrils per 1 ml. To provoke maximum aggregation, about 0.01 ml of this collagen solution was added to 1 ml of platelet-rich plasma. Previously, the plasma was incubated at 37°C with varying quantities of test compound for 10 minutes each: […]

[3] = system: bleeding time; test: prolonging effect upon the bleeding time, method of Duke; assay type: in vivo; conditions: 10 mgm/kg per os, mice, vs untreated animals
Method: 3. The prolonging effect upon the bleeding time was ascertained by the method of Duke, J. Amer. Med. Assoc. 15, 1185 (1910). 10 mgm/kg of the test compound were given per os to non-anesthetized mice. After 1 or 3 hours, about 0.5 mm was cut off from the tail of each animal, and the exuded blood was carefully soaked up with filter paper at intervals of 30 seconds. The number of drops of blood so obtained was used as a measure for the bleeding time compared to untreated animals (5 animals/test).

[4] = acute toxicity in white mice after oral or intravenous administration; assay type: in vivo; conditions: observation time 14 days; for animals died: 250 mgm/kg p.o.; for LD50 at 336 h: mouse, in vivo
Method: 4. The acute toxicities of the compounds were determined in white mice (observation time: 14 days) after oral or intravenous adminstration. The LD50 was calculated from the percentage of animals which died after different doses within the observation time [see Finney et al in Probit Analysis, third Edition, Cambridge (1971)].

[5] = system: thrombocyte aggregation; test: inhibition of thrombocyte aggregation induced by adenosine diphosphate (ADP), Born and Cross; assay type: cell-based; conditions: 10 min, platelet-rich human plasma, 10 min at 37°C, read-out: ED50 (concentration which reduces the maximum light-permeability after addition of ADP by 50%)
Text: as §1
The ADP-doses were held to a minimum, but still sufficiently large to result in an irreversible aggregation. Prior to addition of ADP, each plasma sample was incubated for 10 minutes at 37°C with various amounts of the test compound. From the data thus obtained, the median effective amount of test compound (ED50), i.e. the concentration which reduces the maximum light-permeability in platelet-rich plasma after addition of ADP by 50%, was calculated.

[6] = po, read-out: Toxicity (p.o. bound)

COc1cccc2c(N3CC[S+]([O-])CC3)nc(N3CCNCC3)cc12 [F, 1-(1-oxido-thiomorpholino)-3-piperazino-5-methoxy-isoquinoline]
Inhibition in % (platelet stickiness) ([1]; 10^^-4 mol/liter): 70%
% inhibition of O.D. ([2]; 10^^-5 mol/liter): 100%
% inhibition of Vmax ([2]; 10^^-5 mol/liter): 100%
% Prolongation of bleeding time ([3]; 1 hour after application): 117%

Cc1cccc2c(N3CC[S+]([O-])CC3)nc(N3CCNCC3)cc12 [D, 1-(1-oxido-thiomorpholino)-3-piperazino-5-methyl-isoquinoline]
Inhibition in % (platelet stickiness) ([1]; 10^^-4 mol/liter): 86%
% inhibition of O.D. ([2]; 3.10^^-5 mol/liter): 100%
% inhibition of Vmax ([2]; 3.10^^-5 mol/liter): 100%
% Prolongation of bleeding time ([3]; 1 hour after application): 78%
animals died [4]: 0 out of 5
LD50 at 336 h [4, 6]: > 250 mg/kg

[O-][S+]1CCN(c2nc(N3CCNCC3)cc3ccccc23)CC1 [B, 1-(1-oxido-thiomorpholino)-3-piperazino-isoquinoline]
Inhibition in % (platelet stickiness) ([1]; 3×10^^-5 mol/liter): 33%
IC50 [5]: 30 µM
% inhibition of O.D. ([2]; 3.10^^-5 mol/liter): 96%
% inhibition of Vmax ([2]; 3.10^^-5 mol/liter): 96%
% inhibition of O.D. ([2]; 10^^-5 mol/liter): 80%
% inhibition of Vmax ([2]; 10^^-5 mol/liter): 75%
% Prolongation of bleeding time ([3]; 1 hour after application): 83%
% Prolongation of bleeding time ([3]; 3 hours after application): 16%
LD50 at 336 h ([4]; iv, read-out: LD50): 123 mg/kg
LD50 at 336 h ([4]; po, read-out: LD50): 940 mg/kg

CN1CCN(c2cc3ccccc3c(N3CCOCC3)n2)CC1 [C, 1-morpholino-3-(N'-methyl-piperazino)-isoquinoline]
Inhibition in % (platelet stickiness) ([1]; 5×10^^-5 mol/liter): 50%
% Prolongation of bleeding time ([3]; 1 hour after application): 85%
animals died [4]: 2 out of 5
LD50 at 336 h [4, 6]: > 250 mg/kg

c1ccc2c(N3CCSCC3)nc(N3CCNCC3)cc2c1 [A, 1-thiomorpholino-3-piperazino-isoquinoline]
Inhibition in % (platelet stickiness) ([1]; 3×10^^-5 mol/liter): 18%
% inhibition of O.D. ([2]; 10^^-4 mol/liter): 100%
% inhibition of Vmax ([2]; 10^^-4 mol/liter): 100%
% inhibition of O.D. ([2]; 10^^-5 mol/liter): 62%
% inhibition of Vmax ([2]; 10^^-5 mol/liter): 51%
% Prolongation of bleeding time ([3]; 1 hour after application): 90%

[O-][S+]1CCN(c2nc(N3CCNCC3)cc3c(Cl)cccc23)CC1 [Compound E, 1-(1-oxido-thiomorpholino)-3-piperazino-5-chloro-isoquinoline]
Inhibition in % (platelet stickiness) ([1]; 10^^-4 mol/liter): 92%
% inhibition of O.D. ([2]; 10^^-5 mol/liter): 100%
% inhibition of Vmax ([2]; 10^^-5 mol/liter): 100%
% Prolongation of bleeding time ([3]; 1 hour after application): 146%
animals died [4]: 0 out of 5
LD50 at 336 h [4, 6]: > 250 mg/kg
